“Also recorded” adds a separate entry of the source. Each block holds one compound with its values, some of them ahead of it.
Legend:
adrenergic nerve endings = conditions: guinea pig; cited from earlier work
[1] = tested on: steroidogenesis in the adrenal glands; conditions: hypophysectomized rats; cited from earlier work
[2] = tested on: smooth muscle of the vas deferens; conditions: mammalian male reproductive system; cited from earlier work
[3] = tested on: Human Platelet Aggregation; conditions: in vitro; cited from earlier work
[4] = tested on: motor pathways in the central nervous system; conditions: cited from earlier work
[5] = tested on: female reproductive system; conditions: in vivo; cited from earlier work
rat stomach fundus = assay: Cascade Assay, stomach (smooth muscle stimulant effect); format: cell-based; conditions: superfused, 50% of maximum (PGE1)
Procedure, shortened: (§1)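 Rabbit aortic strip (4 g tension), rat stomach fundus, rat colon and chick rectum (1 g) in cascade, superfused at 10 ml/min with 37° C Krebs containing cholinergic, adrenergic, serotonin and histamine blockers. Doses of 0.001–100,000 ng dripped on at 10–20 min intervals; maximal tension rise gave graphical ED50 per tissue.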

chick rectum = assay: Cascade Assay, rectum (smooth muscle stimulant effect); format: cell-based; conditions: superfused, 50% of maximum (PGE1)
Procedure, shortened: as §1

rabbit aortic strip = assay: Cascade Assay, aorta (smooth muscle stimulant effect); format: cell-based; conditions: superfused, 50% of maximum (PGA2)
Procedure, shortened: as §1

[6] = tested on: Blood Pressure and Heart Rate; assay: Effects on Blood Pressure and Heart Rate in the Anesthetized Cat; format: in vivo; conditions: intravenous, 0.01 to 10.0 mcg/kg, scored only on hypotension
Procedure, shortened: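 Cats of either sex anesthetized with pentobarbital sodium (35 mg/kg i.v.) plus barbital sodium (100 mg/kg i.v.), femoral arterial pressure and ECG-driven heart rate recorded. Compound given i.v. at one-log increasing doses, 0.01–10.0 mcg/kg, every 10 min. ED50 mmHg (dose lowering blood pressure by 50 mmHg) derived graphically from hypotension.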

Guinea Pig Trachea = assay: Effects on the Guinea Pig Trachea in Vitro; format: cell-based; conditions: 0.01 to 10.0 mcg/ml, versus PGE1 0.1 mcg/ml, R = relaxation, C = contraction
Description: A male guinea pig weighing 200-500 g was killed by a blow on the head. A 20 mm length of the trachea was dissected from the animal, transferred to a petri dish containing Krebs' solution (aerated with 95% O2 and 5% CO2 at 37° C), and cut longitudinally opposite the tracheal muscle. The tissue was then cut transversely three quarters of the distance across, a second cut in the opposite direction (again three quarters of the distance across the tissue) was made and the procedure was continued for the whole tissue. The ends of the trachea were pulled to form a zig-zag shaped strip. The tracheal strip used in the experiment was approximately 30 mm when extended under 0.25-0.5 g load in the tissue bath. Cotton thread was tied to one end of the tissue, and linen thread to the other. It was attached via the linen thread to a glass hook in a 5 ml isolated tissue bath containing Krebs' solution (37° C, aerated with a mixture of 95 % O2 and 5% CO2). […]
A test compound was then added to the same two strips at bath concentrations of 0.01, 0.1, 1.0, and 10.0 mcg/ml and the effects of the compound were recorded. […] The mean of the effects of the test compound on the two strips was then calculated for each concentration, and, based on the resulting values, an activity value was assigned as follows: […]

Gastric Secretion = assay: Effects on Gastric Secretion in the Rat; format: in vivo; conditions: pylorus-ligated rat, subcutaneous, 2 x 1.5 mg/kg (total 3.0 mg/kg), 4 hours
Procedure, shortened: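 Rats (150-200 g, groups of six) fasted 48 h, pylorus ligated under ether. Compounds given s.c. in phosphate buffer pH 7.38 at 1.5 mg/kg immediately post-surgery and 2 h later (total 3.0 mg/kg). At 4 h, gastric volume and total acid (titration with 0.1 N NaOH, mEq) compared with vehicle controls by t-test.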

rat colon = assay: Cascade Assay, colon (smooth muscle stimulant effect); format: cell-based; conditions: superfused, 50% of maximum (PGF2α)
Procedure, shortened: as §1

Rat Uterus = assay: Effects on the Rat Uterus in Vitro; format: cell-based; conditions: Rattus norvegicus; in vitro, 29° C; response 50% that of carbachol; read-out: Test F Rat Uterus, Activity Value (ED50)
Procedure, shortened: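 Uterine segments came from rats (140–160 g) given 1 mg/kg diethylstilbestrol s.c. 18 h earlier. Tissue was held isometrically at 1 g tension in de Jalon solution at 29 °C, gassed with 95% O2/5% CO2. Compound was tested at 0.001–10 mcg/ml in log steps, every 10 min with washes, and ED50 was derived graphically as 50% of the second carbachol (1 mcg/ml) response.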

SMILES: CCCCC[C@H](O)/C=C/[C@H]1[C@H](O)CC(=O)[C@@H]1CCCCCCC(=O)O [PGE1, prostaglandin E1]
- transmitter release from adrenergic nerve endings (adrenergic nerve endings): inhibit transmitter release from adrenergic nerve endings
- steroidogenesis in the adrenal glands [1]: stimulate steroidogenesis in the adrenal glands
- contraction of smooth muscle of the vas deferens [2]: contracts the smooth muscle of the vas deferens
- inhibition of aggregation of human platelets, in words (natural prostaglandin) [3]: displays a similar activity

SMILES: CCCCC[C@H](O)/C=C/[C@@H]1[C@@H](C/C=C\CCCC(=O)O)[C@@H](O)C[C@H]1O [PGF2α]
- transmission in motor pathways [4]: facilitates transmission in motor pathways
- effect in the female reproductive system (fertility, labor, abortion) [5]: contragestational effects; also recorded: induces spontaneous abortions in early pregnancy

SMILES: COC(=O)CCCCCC[C@H]1C(=O)C=C[C@H]1/C=C/[C@@H](O)C1CC2(CCC2)C1 [TR-4126, Methyl 7-{5-oxo-2R-[3S-hydroxy-3-(spiro[3.3]hept-2-yl)-1E-propenyl]cyclopent-3-en-1R-yl}heptanoate]
- Test E Cascade Assay, Stomach, Activity Value (ED50) (rat stomach fundus): 0 (>10000)
- Test E Cascade Assay, Rectum, Activity Value (ED50) (chick rectum): 0 (>10000)
- Test E Cascade Assay, Aorta, Activity Value (ED50) (rabbit aortic strip): 0 (>10000)
- Test D Activity Value (ED50 mmHg, decrease in blood pressure) [6]: 0 (>10.0)
- Test G Guinea Pig Trachea, Activity Value (Guinea Pig Trachea): Cl

- EC50 (Rat Uterus): > 10 µg/mL
SMILES: O=C1C[C@@H](O)[C@H](/C=C/[C@@H](O)C2CC3(CCC3)C2)[C@H]1CCCCCCCO [TR-4714, 7-{3R-hydroxy-5-oxo-2R-[3S-hydroxy-3-(spiro[3.3]hept-2-yl)-1E-propenyl]cyclopent-1R-yl}heptan-1-ol]
- Test E Cascade Assay, Stomach, Activity Value (ED50) (rat stomach fundus): 0 (>10000)
- Test E Cascade Assay, Rectum, Activity Value (ED50) (chick rectum): 0 (>10000)
- Test B Activity Value (% decrease in acidity, inhibition of gastric secretion) (Gastric Secretion): 0 (<26)
- Test E Cascade Assay, Aorta, Activity Value (ED50) (rabbit aortic strip): 0 (>10000)
- Test E Cascade Assay, Colon, Activity Value (ED50) (rat colon): 0 (>10000)
- Test G Guinea Pig Trachea, Activity Value (Guinea Pig Trachea): Cl

— patent publication US4098823A, “Monospiroalkyl derivatives of prostaglandins” (Miles Laboratories, Inc., priority 1977, dated 1978)
